Experimental data published in patent EP0241395A2, “Sweeteners derived from n-phenylguanidinoacetic and n-phenylethananamidinacetic acids, and compositions containing such sweeteners” (UNIVERSITE CLAUDE BERNARD - LYON 1, priority 1986, dated 1987).

Test system: groupe de huit goûteurs expérimentés
Experiment: Sweetening power judged by a panel of eight experienced tasters against a sucrose reference solution
Format: in vivo
Details: weight basis; for Pouvoir édulcorant: Table II, relative to a 2 % sucrose solution; for pouvoir édulcorant, sur une base pondérale: approximate
Text: Le pouvoir édulcorant des composés préparés dans les exemples suivants a été évalué par un groupe de huit goûteurs expérimentés. Pour cela, les composés, en solution aqueuse à des concentrations variables, sont comparés, sur le plan gustatif, à une solution témoin de saccharose à 2 % et dans certains cas à 5 % et 10 %, c'est-à-dire à des concentrations correspondant à celles utilisées lors d'un usage courant. Le pouvoir sucrant des édulcorants de synthèse varie en effet suivant la concentration de la solution de saccharose utilisée comme référence. Le pouvoir édulcorant du composé testé par rapport au saccharose correspond alors au rapport pondéral qui existe entre le composé et le saccharose à égale intensité édulcorante, c'est-à-dire quand les saveurs sucrées de la solution du composé testé et de la solution témoin de saccharose sont considérées, par une majorité de goûteurs, avoir la même intensité édulcorante.

[1] = by comparison with a 2 % sucrose solution
[2] = by comparison with a 5 % sucrose solution
[3] = by comparison with a 10 % sucrose solution

Row | SMILES | Pouvoir édulcorant | pouvoir édulcorant, sur une base pondérale [1] | pouvoir édulcorant, sur une base pondérale [2] | pouvoir édulcorant, sur une base pondérale [3]
1 | O=C(O)CNC(=Nc1cc(Cl)cc(Cl)c1)NCC1CCCCC1 [Exemple 57, acide N-[N-cyclohexylméthylamino (3,5-dichlorophénylimino)méthyl]-2-aminoéthanoïque] | 35000 | ~35 000 fois celui du saccharose | – | –
2 | O=C(O)CNC(=Nc1ccc(Cl)cc1)NCC1CCCCC1 [Exemple 58, acide N-[N-cyclohexylméthylamino(4-chlorophénylimino)méthyl]-2-aminoéthanoïque] | 3500 | ~3 500 fois celui du saccharose | ~2 700 fois celui du saccharose | ~1 500 fois celui du saccharose
3 | N#Cc1ccc(N=C(NCC(=O)O)NCC2CCCCC2)cc1 [Exemple 59, acide N-[N-cyclohexylméthylamino(4-cyanophénylimino)méthyl]-2-aminoéthanoïque] | 35000 | ~35 000 fois celui du saccharose | ~28 000 fois celui du saccharose | ~17 000 fois celui du saccharose
4 | COC(=O)c1ccc(N=C(NCC(=O)O)NCC2CCCCC2)cc1 [Exemple 60, acide N-[N-cyclohexylméthylamino(4-méthoxycarbonylphénylimino)méthyl]-2-aminoéthanoïque] | 1300 | ~1 300 fois celui du saccharose | ~900 fois celui du saccharose | ~500 fois celui du saccharose
5 | O=C(O)CN=C(NCC1CCCCC1)Nc1ccc(C(=O)O)cc1 [Exemple 61, acide N-[N-cyclohexylméthylamino(4-carboxyphénylimino)méthyl]-2-aminoéthanoïque] | 50 | ~50 fois celui du saccharose | – | –
6 | O=C(O)CNC(=Nc1ccc([N+](=O)[O-])cc1)NCC1CCCCC1 [Exemple 62, acide N-[N-cyclohexylméthylamino(4-nitrophénylimino)méthyl]-2-aminoéthanoïque] | 8000 | ~8 000 fois celui du saccharose | ~7 500 fois celui du saccharose | ~4 000 fois celui du saccharose
7 | C[C@H](NC(=Nc1cc(Cl)cc(Cl)c1)NCC(=O)O)C1CCCCC1 [Exemple 63, acide N-[N-(S)-l-cyclohexyléthylamino(3,5-dichlorophénylimino)méthyl]-2-aminoéthanoïque] | 70000 | ~70 000 fois celui du saccharose | – | –
8 | Cc1ccccc1N=C(NCC(=O)O)Nc1ccc(C#N)cc1 [Exemple 64, acide N-[N-(2-méthylphényl)amino (4-cyanophénylimino)méthyl]-2-aminoéthanoïque] | 5000 | ~5 000 fois celui du saccharose | – | –
9 | Cc1cccc(NC(=Nc2ccc(C#N)cc2)NCC(=O)O)c1 [Exemple 65, acide N-[N-(3-méthylphényl)amino(4-cyanophénylimino)méthyl]-2-aminoéthanoïque] | 9000 | ~9 000 fois celui du saccharose | – | –
10 | Cc1ccc(NC(=Nc2ccc(C#N)cc2)NCC(=O)O)cc1 [Exemple 66, acide N-[N-(4-méthylphényl)amino(4-cyanophénylimino)méthyl]--2-aminoéthanoïque] | 7000 | ~7 000 fois celui du saccharose | – | –
11 | CC1(NC(=Nc2ccc(C#N)cc2)NCC(=O)O)CCCCC1 [Exemple 67] | 100 | ~100 fois celui du saccharose | – | –
12 | O=C(O)CNC(=Nc1cccc2ccccc12)Nc1cc(Cl)cc(Cl)c1 [Exemple 68, acide N-[N-1-naphtylamino (3,5-dichlorophénylimino)méthyl]-2-aminoéthanoïque] | 30000 | ~30 000 fois celui du saccharose | – | –
13 | N#Cc1ccc(N=C(NCC(=O)O)Nc2cccc3ccccc23)cc1 [Exemple 69, acide N-[N-1-naphtylamino(4-cyanophénylimino)méthyl)-2-aminoéthanoïque] | 60000 | ~60 000 fois celui du saccharose | – | –
14 | N#Cc1ccc(N=C(NCC(=O)O)NC2CCc3ccccc32)cc1 (stereo not shown) [Exemple 70, acide N-[N-(1-indanyl)amino(4-cyanophénylimino)méthyl]-2-aminoéthanoïque] | 5000 | ~5 000 fois celui du saccharose | – | –
15 | N#Cc1ccc(N=C(NCC(=O)O)NC23CC4CC(CC(C4)C2)C3)cc1 [Exemple 71, acide N-[N-(1-adamantyl)amino(4-cyanophénylimine)méthyl]-2-8minoéthanoique] | 3 500 | ~3 500 fois celui du saccharose | – | –
16 | N#Cc1ccc(N=C(NCC(=O)O)NCC23CC4CC(CC(C4)C2)C3)cc1 [Exemple 72, acide N-[N-(l-adamantylméthyl)amino(4-cyanophénylimino)méthyl]-2-aminoéthanoïque] | 23000 | ~23 000 fois celui du saccharose | – | –
17 | N#CN=C(NCC(=O)O)Nc1cccc(Cl)c1 [Exemple 73, acide N-[cyanoimino(3-chlorophénylamino)méthyl]-2-aminoéthanoïque] | 80 | ~80 fois celui du saccharose | – | –
18 | CN(C(=Nc1ccc(C#N)cc1)NCC(=O)O)c1ccccc1 [Exemple 74, acide N-[N-(N-méthyl-N-phénylamino) (4-cyanophénylimino)méthyl]-2-aminoéthanoïque] | 18000 | ~18 000 fois celui du saccharose | – | –
19 | N#Cc1ccc(N=C(NCC(=O)O)Nc2ccc3c(c2)OCO3)cc1 [Exemple 75, acide N-[N-(3,4-méthylènedioxyphényl)amino(4-cyanophénylimino)méthyl]-2-aminoéthanoïque] | 5000 | ~5 000 fois celui du saccharose | – | –
20 | O=C(O)CNC(=Nc1cc(Cl)cc(Cl)c1)NN1CCOCC1 [Exemple 76, acide N-[N-morpholinoamino (3,5-dichlorophénylimino)méthyl]-2-aminoéthanoïque] | 500 | ~500 fois celui du saccharose | – | –
21 | N#Cc1ccc(N=C(NCC(=O)O)NN2CCOCC2)cc1 [Exemple 77, acide N-[N-morpholinoamino(4-cyano-phénylimino)méthyl]-2-aminoéthanoïque] | 950 | ~950 fois celui du saccharose | – | –
22 | CC1(C)SC(C)(C)C1NC(=Nc1ccc(C#N)cc1)NCC(=O)O [Exemple 78, acide N-[N-(2,2,4,4-tétraméthylthiacyclobut-3-yl)amino(4-cyanophénylimino)méthyl]-2-amino-éthanoïque] | 700 | ~700 fois celui du saccharose | – | –
23 | O=C(O)CNC(=NS(=O)(=O)c1ccccc1)Nc1cccc(Cl)c1 [Exemple 79, acide N-[phénylsulfonylimino (3-chlorophénylamino)méthyl]-2-aminoéthanoique] | 17000 | ~17 000 fois celui du saccharose | – | –
24 | N#Cc1ccc(N=C(NCC(=O)O)Nc2cccc(Cl)c2)cc1 [Exemple 80, acide N-[N-(3-chlorophényl)amino(4-cyanophénylimino)méthyl]-2-aminoéthanoïque] | 10000 | – | – | –
25 | O=C(O)CNC(=Nc1cc(Cl)cc(Cl)c1)Nc1cc(Cl)cc(Cl)c1 [Exemple 81, acide N-[N-3,5-dichlorophénylamino (3,5-dichlorophénylimino)méthyl]-2-aminoéthanoïque] | 1000 | ~1 000 fois celui du saccharose | – | –
26 | N#Cc1ccc(N=C(NCC(=O)O)N2CCCC2)cc1 [Exemple 82, acide N-[N,N-(tétraméthylène)amino (4-cyanophénylimino)méthyl]-2-aminoéthanoïque] | 100 | ~100 fois celui du saccharose | – | –
27 | N#Cc1ccc(N=C(NCC(=O)O)N2CCCCC2)cc1 [Exemple 83, acide N-[N,N-(pentaméthylène)amino (4-cyanophénylimino)méthyl]-2-aminoéthanoïque] | 200 | ~200 fois celui du saccharose | – | –
28 | CN(C(=NCc1ccccc1)NCC(=O)O)c1ccccc1 [Exemple 84, acide N-[benzylimino(N-méthyl-N-phénylamino)méthyl]-2-aminoéthanoïque] | 200 | ~200 fois celui du saccharose | – | –
29 | C[C@@H](NC(=Nc1ccc(C#N)cc1)NC1CCCCC1)C(=O)O [Exemple 85, acide (R)-N-[N-cyclohexylamino (4-cyanophénylimino)méthyl]-2-aminopropanoïque] | 100 | ~100 fois celui du saccharose | – | –
30 | CC(NC(=Nc1cc(Cl)cc(Cl)c1)N[C@H](C)C(=O)O)c1ccccc1 (stereo partly drawn) [Exemple 86, acide (R)-N-[N-(S)-α-méthylbenzylamino(3,5-dichlorophénylimino)méthyl]-2-aminopropanoïque] | 120 | ~120 fois celui du saccharose | – | –
